Experimental data reported in paper PMC3429506, “Screening for Novel LRRK2 Inhibitors Using a High-Throughput TR-FRET Cellular Assay for LRRK2 Ser935 Phosphorylation” (PLoS ONE, 2012).

Legend:
LRRK2 G2019S [1] = biological target: T1, LRRK2 G2019S (Homo sapiens, UniProt Q5S007, G2019S); assay: In vitro biochemical LRRK2 TR-FRET activity assay; conditions: for IC50: LRRK2 G2019S, ATP 134 µM (Km,app), LRRKtide substrate, three independent experiments, read-out: Biochemical LRRK2 assay IC50 +/- SD
T1 sequence (Q5S007 whole entry G2019S): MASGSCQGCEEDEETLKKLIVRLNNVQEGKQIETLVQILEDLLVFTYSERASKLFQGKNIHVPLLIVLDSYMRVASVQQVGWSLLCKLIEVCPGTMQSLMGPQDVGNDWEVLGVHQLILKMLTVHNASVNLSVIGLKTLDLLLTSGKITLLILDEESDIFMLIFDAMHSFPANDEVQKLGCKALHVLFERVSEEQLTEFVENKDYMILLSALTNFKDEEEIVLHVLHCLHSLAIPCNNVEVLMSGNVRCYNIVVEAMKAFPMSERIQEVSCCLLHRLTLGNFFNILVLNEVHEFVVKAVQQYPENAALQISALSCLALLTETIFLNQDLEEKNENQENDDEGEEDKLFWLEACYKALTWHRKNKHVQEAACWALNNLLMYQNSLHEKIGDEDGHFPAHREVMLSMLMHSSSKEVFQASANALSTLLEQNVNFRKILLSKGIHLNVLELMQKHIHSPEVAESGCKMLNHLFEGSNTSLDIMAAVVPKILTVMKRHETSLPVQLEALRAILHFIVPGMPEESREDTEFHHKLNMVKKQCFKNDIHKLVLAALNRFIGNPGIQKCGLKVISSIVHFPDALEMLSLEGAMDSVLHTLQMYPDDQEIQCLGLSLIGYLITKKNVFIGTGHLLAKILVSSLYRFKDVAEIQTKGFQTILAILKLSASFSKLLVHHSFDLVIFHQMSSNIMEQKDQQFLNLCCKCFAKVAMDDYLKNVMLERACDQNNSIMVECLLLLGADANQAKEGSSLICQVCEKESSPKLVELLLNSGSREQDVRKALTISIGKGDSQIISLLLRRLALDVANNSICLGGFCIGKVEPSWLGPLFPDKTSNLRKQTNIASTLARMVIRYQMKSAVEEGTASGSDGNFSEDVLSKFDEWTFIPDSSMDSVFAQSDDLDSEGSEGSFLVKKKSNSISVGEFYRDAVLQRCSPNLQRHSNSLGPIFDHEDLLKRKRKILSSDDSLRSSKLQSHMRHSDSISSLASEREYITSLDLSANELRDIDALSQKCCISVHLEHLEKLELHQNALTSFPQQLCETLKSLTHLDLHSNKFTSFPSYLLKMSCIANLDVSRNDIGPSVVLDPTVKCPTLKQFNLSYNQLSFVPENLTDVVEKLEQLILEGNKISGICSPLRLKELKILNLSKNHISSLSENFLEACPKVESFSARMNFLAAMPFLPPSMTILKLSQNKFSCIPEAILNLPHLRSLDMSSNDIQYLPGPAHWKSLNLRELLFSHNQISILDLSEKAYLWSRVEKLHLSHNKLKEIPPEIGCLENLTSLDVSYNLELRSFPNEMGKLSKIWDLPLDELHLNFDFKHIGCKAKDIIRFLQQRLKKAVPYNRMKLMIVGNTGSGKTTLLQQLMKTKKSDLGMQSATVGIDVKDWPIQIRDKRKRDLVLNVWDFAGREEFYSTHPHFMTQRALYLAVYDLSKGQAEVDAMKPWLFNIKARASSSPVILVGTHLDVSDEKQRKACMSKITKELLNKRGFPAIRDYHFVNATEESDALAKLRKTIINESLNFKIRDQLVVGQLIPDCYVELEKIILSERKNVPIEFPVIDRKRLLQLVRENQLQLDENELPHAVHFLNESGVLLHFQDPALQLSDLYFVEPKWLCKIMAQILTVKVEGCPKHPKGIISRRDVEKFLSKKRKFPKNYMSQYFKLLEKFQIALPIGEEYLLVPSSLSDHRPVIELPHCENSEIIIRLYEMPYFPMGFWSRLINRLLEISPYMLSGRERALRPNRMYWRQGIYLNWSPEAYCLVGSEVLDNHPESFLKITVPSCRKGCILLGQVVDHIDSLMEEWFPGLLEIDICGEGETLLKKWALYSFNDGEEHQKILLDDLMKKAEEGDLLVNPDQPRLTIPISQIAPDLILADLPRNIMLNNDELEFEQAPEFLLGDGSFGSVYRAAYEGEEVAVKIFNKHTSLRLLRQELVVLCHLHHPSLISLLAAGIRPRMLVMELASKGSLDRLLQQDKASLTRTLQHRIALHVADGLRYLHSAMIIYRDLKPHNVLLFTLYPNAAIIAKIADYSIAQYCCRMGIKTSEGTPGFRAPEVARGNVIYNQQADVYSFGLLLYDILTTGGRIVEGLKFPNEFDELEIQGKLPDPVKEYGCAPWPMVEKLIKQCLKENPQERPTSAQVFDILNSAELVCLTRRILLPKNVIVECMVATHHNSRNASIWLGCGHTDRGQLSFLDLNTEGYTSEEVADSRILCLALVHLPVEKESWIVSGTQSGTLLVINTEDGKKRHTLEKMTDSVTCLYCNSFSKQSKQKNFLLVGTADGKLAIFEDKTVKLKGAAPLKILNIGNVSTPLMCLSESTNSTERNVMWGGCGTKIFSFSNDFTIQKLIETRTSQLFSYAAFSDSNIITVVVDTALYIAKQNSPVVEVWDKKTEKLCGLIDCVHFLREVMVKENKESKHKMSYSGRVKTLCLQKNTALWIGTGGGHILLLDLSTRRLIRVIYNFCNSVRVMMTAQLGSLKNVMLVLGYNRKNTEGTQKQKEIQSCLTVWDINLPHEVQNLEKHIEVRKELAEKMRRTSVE
Procedure: The Biochemical LRRK2 TR-FRET activity assay was performed according to the manufacture recommended assay protocol (Life Technologies). […] After incubation at room temperature for 1 hour, the kinase reactions were stopped by addition of 10 µL of 20 mM EDTA and 4 nM Tb-anti-pERM (pLRRKtide) antibody in TR-FRET dilution buffer (Life Technologies). After a 30 minute incubation at room temperature, TR-FRET measurements were obtained on a BMG PHERAstar plate reader using LanthaScreen® filters and settings. A 16 point, 2-fold dilution series of each compound was tested in triplicate at each concentration and assays were also performed in triplicate.

[2] = system: SH-SY5Y cells expressing LRRK2-GFP G2019S; assay: Cytotoxicity assay (resazurin-based cell viability); conditions: read-out: Cytotoxicity Assay IC50; same conditions as TR-FRET follow-up; one representative of two experiments
LRRK2 G2019S [3] = biological target: T1, LRRK2 G2019S; assay: TR-FRET cellular assay for LRRK2 Ser935 phosphorylation, SH-SY5Y cells, BacMam LRRK2-GFP G2019S (incl. Tocriscreen Mini library screen and follow-up); format: cell-based; set-up: This high-throughput assay utilizes cells expressing full-length human LRRK2 with a C-terminal GFP tag (LRRK2-GFP); host or cells: SH-SY5Y cells transduced with BacMam; conditions: for Cellular TR-FRET Assay Max % Inhibition: 90 min; for IC50: three independent experiments
Procedure: (§1) U-2 OS cells are maintained in growth medium (McCoy’s 5A supplemented with 10% dialyzed FBS (dFBS), 10 mM HEPES, 0.1 mM NEAA, 1 mM Sodium Pyruvate, and 100 U/mL Penicillin/100 µg/mL Streptomycin). HEK293T cells are maintained in DMEM with 10% dFBS, 10 mM HEPES, 0.1 mM NEAA and 100 U/mL Penicillin/100 µg/mL Streptomycin. SH-SY5Y cells are maintained in DMEM/F-12 medium supplemented with 10% dFBS and 100 U/mL Penicillin/100 µg/mL Streptomycin. […] GIBCO® human neural stem cells (hNSCs) were propagated as an adherent culture in StemPro® NSC SFM according to the manufacturer’s recommended protocol (Life Technologies). For BacMam transduction of U-2 OS and HEK293T, cells were harvested, mixed with various amounts of BacMam LRRK2-GFP reagent (v/v) and plated onto 6-well plates. […] Cells were assayed in 384-well format (∼20,000 cells/well) 48 hours post-transduction as above.
(§2) Transduced cells in the 384-well assay plate were incubated with indicated inhibitors (5X, 5 µL/well) for 60 to 90 minutes. During this time, 6 X lysis buffer (Life Technologies) was supplemented with 30 nM Tb-labeled anti-LRRK2 pSer935 antibody and both protease and phosphatase inhibitor cocktails (Sigma). The complete 6 X lysis buffer was added to each well (5 µL/well) and the plates were incubated at room temperature in the dark for 2 hours. […] A sigmoidal dose-response equation with varying slope was used to fit the data and generate IC50 values. Z′-factor values were calculated as: Z′-factor = 1 - [(3 × stdevno virus +3 × stdevmaxvirus)/(avgmaxvirus – avgno-virus)]. The IC50 values reported in Table 1 are the averaged numbers from three independent experiments.
40 nL of 10 mM Tocris library compounds in DMSO were dispensed into each well of the assay plate by the ECHO system. Equal volumes of DMSO were dispensed into the control wells. Cells were incubated with compounds for 90 to 120 min prior to cell lysis and detection as described above. The percent inhibition is calculated as: [(average emission ratios of DMSO control wells – average emission ratios of compound wells)/(average emission ratios of DMSO control wells – average emission ratios of LRRK2-IN-1 treated wells)] * 100. For the dose-response follow-up studies, fresh compound DMSO stock solutions were prepared from powder. […] Z′-factor value was calculated as: Z′-factor = 1 - [(3 × stdevLRRK2-IN-1+3 × stdevDMSO)/(avgDMSO – avgLRRK2-IN-1)]. The IC50 values reported in Table 2 are the averaged numbers from three independent experiments for both cellular and biochemical TR-FRET assays and one representative result of two independent experiments for the cytotoxicity assay.

GFP-LRRK2 G2019S = biological target: T2, GFP-LRRK2 G2019S (Homo sapiens, UniProt Q5S007, G2019S); assay: Immunoprecipitation/Western analysis of LRRK2 phosphorylation at Ser910, Ser935, Ser955, Ser973 in HEK293 T-REx GFP-LRRK2 G2019S cells; format: cell-based; conditions: for effect on phosphorylation of Ser910, Ser935, Ser955 and Ser973 (IP-Western): 20 µM, 90 min, HEK293 GFP-LRRK2 G2019S, Figure 6
T2 construct: expressed in transfected cells
T2 sequence (Q5S007 whole entry G2019S): as above
Procedure: (§3) Immunoblot analysis: BacMam LRRK2-GFP transduced U-2 OS or SH-SY5Y cells (10^7 cells) were left untreated or treated with 3 µM LRRK2-IN-I for 90 min. For lysate preparation, the cells were washed once with ice-cold PBS and lysed by addition of ice-cold lysis buffer (20 mM Tris-HCl, pH 7.4, 1% NP-40, 5 mM EDTA, 5 mM NaF, 150 mM NaCl, and 1∶100 of protease and phosphatase inhibitor cocktails). The lysate was cleared of debris by centrifugation. Equal amount of total protein was loaded onto each lane for SDS-PAGE (3–8% Tris Acetate). The proteins were transferred onto nitrocellulose membrane using the iBLOT® dry blotting system (Life Technologies) according to manufacturer’s protocol. The membranes were blocked and incubated with a primary antibody against LRRK2 (Cell Signaling Technologies), followed by incubation with alkaline phosphatase-conjugated secondary antibody (WesternBreeze® chromogenic Kit, Life Technologies). The blot was developed by using the chromogenic BCIP/NBT substrate (WesternBreeze® chromogenic Kit, Life Technologies). […] Two days post induction, cells were treated for 90 minutes in the presence of 20 µM of compound or DMSO vehicle control. Cells were rapidly lysed in ice cold lysis buffer 50 mM Tris/HCl, pH 7.5, 1 mM EGTA, 1 mM EDTA, […] 1 mM sodium orthovanadate, 10 mM sodium beta-glycerolphosphate, 50 mM NaF, 5 mM sodium pyrophosphate, 0.27 M sucrose, 1 mM benzamidine and 2 mM phenylmethanesulphonylfluoride (PMSF) and one tablet each complete protease inhibitor and PhosSTOP phosphatase inhibitor (Roche) and was supplemented with 1% (v/v) Triton X-100. GFP-LRRK2 was immunoprecipitated with GFP nanotrap beads (ChromoTek). Immunecomplexes were washed twice with lysis buffer supplemented with 300 mM NaCl and once with Buffer A (50 mM Tris/HCl, pH 7.5, 50 mM NaCl, 0.1 mM EGTA and 0.1% (v/v) 2-mercaptoethanol, and 0.27 M sucrose).

LRRK2 A2016T/G2019S = biological target: T3, LRRK2 A2016T/G2019S (Homo sapiens, UniProt Q5S007, A2016T/G2019S); assay: Immunoprecipitation/Western analysis of LRRK2 phosphorylation in T-REx HEK293 cells expressing inhibitor desensitizing mutant; format: cell-based; conditions: for effect of desensitizing mutation A2016T/G2019S on compound-induced dephosphorylation (IP-Western): 20 µM, Figure 6 IRM
T3 construct: expressed in transfected cells
T3 sequence (Q5S007 whole entry A2016T/G2019S): as the sequence (Q5S007 whole entry G2019S) above, with A2016T counted along it
Procedure: as §3

LRRK2 wild-type [4] = biological target: T4, LRRK2 wild-type (Homo sapiens, UniProt Q5S007); assay: TR-FRET cellular assay for LRRK2 Ser935 phosphorylation, SH-SY5Y cells, BacMam LRRK2-GFP wild-type; format: cell-based; set-up: This high-throughput assay utilizes cells expressing full-length human LRRK2 with a C-terminal GFP tag (LRRK2-GFP); host or cells: SH-SY5Y cells transduced with BacMam; conditions: WT, +/- SD, three independent experiments, * = partial inhibition, read-out: IC50, TR-FRET cell-based assay for Ser935 phosphorylation of LRRK2
T4 sequence (Q5S007 whole entry): as the sequence (Q5S007 whole entry G2019S) above, with S2019G counted along it
Procedure: as §1, §2

LRRK2 wild-type [5] = biological target: T4, LRRK2 wild-type; assay: TR-FRET cellular assay for LRRK2 Ser935 phosphorylation, HEK293T cells, BacMam LRRK2-GFP wild-type; set-up: This high-throughput assay utilizes cells expressing full-length human LRRK2 with a C-terminal GFP tag (LRRK2-GFP); host or cells: HEK293T cells transduced with BacMam; conditions: WT, +/- SD, three independent experiments, * = partial inhibition, read-out: IC50, TR-FRET cell-based assay for Ser935 phosphorylation of LRRK2
Procedure: as §1, §2

LRRK2 G2019S [6] = biological target: T1, LRRK2 G2019S; assay: TR-FRET cellular assay for LRRK2 Ser935 phosphorylation, U-2 OS cells, BacMam LRRK2-GFP G2019S; format: cell-based; set-up: This high-throughput assay utilizes cells expressing full-length human LRRK2 with a C-terminal GFP tag (LRRK2-GFP); host or cells: U-2 OS, SH-SY5Y, HEK293T cells or human neural stem cells transduced with BacMam; conditions: G2019S, +/- SD, three independent experiments, * = partial inhibition, read-out: IC50, TR-FRET cell-based assay for Ser935 phosphorylation of LRRK2
Procedure: as §1, §2

LRRK2 G2019S [7] = biological target: T1, LRRK2 G2019S; assay: TR-FRET cellular assay for LRRK2 Ser935 phosphorylation, HEK293T cells, BacMam LRRK2-GFP G2019S; set-up: This high-throughput assay utilizes cells expressing full-length human LRRK2 with a C-terminal GFP tag (LRRK2-GFP); host or cells: HEK293T cells transduced with BacMam; conditions: +/- SD, three independent experiments, * = partial inhibition, read-out: IC50, TR-FRET cell-based assay for Ser935 phosphorylation of LRRK2
Procedure: as §1, §2

LRRK2 wild-type [8] = biological target: T4, LRRK2 wild-type; assay: TR-FRET cellular assay for LRRK2 Ser935 phosphorylation, U-2 OS cells, BacMam LRRK2-GFP wild-type; format: cell-based; set-up: This high-throughput assay utilizes cells expressing full-length human LRRK2 with a C-terminal GFP tag (LRRK2-GFP); host or cells: U-2 OS cells transduced with BacMam; conditions: WT, +/- SD, three independent experiments, * = partial inhibition, read-out: IC50, TR-FRET cell-based assay for Ser935 phosphorylation of LRRK2
Procedure: as §1, §2

[9] = system: LRRK2 Ser935 phosphorylation; assay: TR-FRET cellular assay for LRRK2 Ser935 phosphorylation (cell background not given); format: cell-based, human; conditions: result in words
Procedure: Transduced cells in the 384-well assay plate were incubated with indicated inhibitors (5X, 5 µL/well) for 60 to 90 minutes. During this time, 6 X lysis buffer (Life Technologies) was supplemented with 30 nM Tb-labeled anti-LRRK2 pSer935 antibody and both protease and phosphatase inhibitor cocktails (Sigma). The complete 6 X lysis buffer was added to each well (5 µL/well) and the plates were incubated at room temperature in the dark for 2 hours. The plate was then read on an EnVision® multilabel plate reader (PerkinElmer, Waltham, MA) with excitation at 340 nm and emission 520 nm and 495 nm. […]. A sigmoidal dose-response equation with varying slope was used to fit the data and generate IC50 values. […]. The IC50 values reported in Table 1 are the averaged numbers from three independent experiments.

[10] = Cytotoxicity assay (resazurin-based cell viability); conditions: human
[11] = Tocriscreen Mini library screen, 20 µM, SH-SY5Y G2019S, relative to LRRK2-IN-1 control
[12] = dose-response follow-up, SH-SY5Y G2019S
[13] = dose-response follow-up, SH-SY5Y G2019S, read-out: Cellular TR-FRET Assay IC50 +/-SD
[14] = SH-SY5Y, G2019S, +/- SD, * = partial inhibition, read-out: IC50, TR-FRET cell-based assay for Ser935 phosphorylation of LRRK2

SMILES	IC50 (LRRK2 G2019S [1]) [µM]	effect on LRRK2 activity in vitro (LRRK2 G2019S [1]; result in words)	IC50 [2] [µM]	%Inhibition Initial screen (LRRK2 G2019S [3]; [11]) [%]	Cellular TR-FRET Assay Max % Inhibition (LRRK2 G2019S [3]; [12]) [%]	IC50 (LRRK2 G2019S [3]; [13]) [µM]	effect on phosphorylation of Ser910, Ser935, Ser955 and Ser973 (IP-Western) (GFP-LRRK2 G2019S)	LRRK2 phosphorylation remaining, % of untreated G2019S (GFP-LRRK2 G2019S; 293 cells, LRRK2 G2019S) [%]	effect of desensitizing mutation A2016T/G2019S on compound-induced dephosphorylation (IP-Western) (LRRK2 A2016T/G2019S)	LRRK2 phosphorylation remaining, % of untreated G2019S (LRRK2 A2016T/G2019S; 293 cells, LRRK2 G2019S/A2016T) [%]	IC50 (LRRK2 wild-type [4]) [µM]	IC50 (LRRK2 G2019S [3]; [14]) [µM]	IC50 (LRRK2 wild-type [5]) [µM]	IC50 (LRRK2 G2019S [6]) [µM]	IC50 (LRRK2 G2019S [7]) [µM]	IC50 (LRRK2 wild-type [8]) [µM]	effect on the phosphorylation of Ser935 in the TR-FRET cellular assay [9]	IC50 [10] [µM]	inhibition at 20 µM (LRRK2 G2019S [3]; SH-SY5Y, Tocriscreen Mini library screen, 20 µM, SH-SY5Y G2019S, relative to LRRK2-IN-1 control, read-out: %Inhibition Initial screen) [%]
Cc1ccc(S(=O)(=O)/C=C/C#N)cc1 [Bay 11-7821]	> 100	did not repress LRRK2 activity in vitro	20	85.5	94	4	moderately reduced phosphorylation of all four residues	50	did not appear to be changed	50	–	–	–	–	–	–	–	–	–
O=C1Nc2ccc(I)cc2/C1=C/c1cc(Br)c(O)c(Br)c1 [GW5074]	–	–	–	–	–	–	–	–	–	–	> 20	> 20	> 20	0.47	0.28	> 20	–	–	–
Cn1cc(/C=C2\C(=O)Nc3cccnc32)c2ccccc21 [GW 441756]	0.32	–	> 20	69.7	72	2.2	inhibited phosphorylation of Ser910, Ser935, Ser955 and Ser973	–	rescued phosphorylation	–	–	–	–	–	–	–	–	–	–
O=S(=O)(NCCNC/C=C/c1ccc(Br)cc1)c1cccc2cnccc12 [H-89]	–	–	–	–	–	–	–	–	–	–	> 20	> 20	–	> 20	–	> 20	no effect	–	–
Cc1cncc2cccc(S(=O)(=O)N3CCCNC[C@@H]3C)c12 [H-1152]	–	–	–	–	–	–	–	–	–	–	1.66	0.77	2.94	0.89	1.38	3.28	–	–	–
Oc1c2ccccc2c2c3c(cccc13)N=N2 [SP 600125]	0.22	–	–	88.3	103	1	inhibited phosphorylation of Ser910, Ser935, Ser955 and Ser973	–	–	–	–	–	–	–	–	–	–	> 20	88
